Read-outs that look alike come from different tables or passages of the source.
Tests used:
[1] = rats, cited from earlier work
[2] = cited from earlier work
[3] = tested on: bovine brain capillary endothelial cells; conditions: bovine brain capillary endothelial cells on filter inserts, co-culture with glial cells; cited from earlier work
[4] = tested on: P-gp; conditions: cited from earlier work
[5] = tested on: rodent P-gp; design: method as in PMID 32856111; conditions: LLC-PK1-Mdr1a cells; cited from earlier work
[6] = molecular target: T1, human P-gp (Homo sapiens, UniProt P08183); conditions: MDCK-MDR1 cells, same origin; cited from earlier work
T1 construct: host or cells: MDCKII-MDR1 (stably transfected canine kidney cells)

[7] = Arterial input function and plasma metabolism of the radiotracer in rats; type: in vivo; conditions: rat
Experimental: Blood samples (50 µL) were collected at selected times from the femoral artery to establish total radioactivity kinetics in arterial plasma. Plasma was separated from whole blood by centrifugation (5 min, 2054 g, 4 °C), and 20 µL of plasma and whole blood were counted using a PET cross-calibrated gamma well counter (WIZARD2, PerkinElmer, Villebon-sur-Yvette, France) to obtain the whole-blood and plasma activity curves. All data were corrected for radioactive decay from the injection time. For the larger blood samples, 80 µL plasma was deproteinized with acetonitrile. The supernatant was injected in high-performance liquid chromatography, equipped with an Atlantis® T3 5 μm 10 × 250 mm column (Waters, Guyancourt, France) and an Atlantis® T3 5 μm 19 × 10 mm pre-column (Waters) with an LB-514 radioactivity flow detector (Berthold, France, MX Z100 cell). The mobile phase was composed of water containing 0.1% (v/v) TFA (solvent A) and acetonitrile containing 0.1% (v/v) TFA (solvent B) delivered in a gradient elution mode at a flow rate of 5 mL min^−1: solvent B increased linearly from 20 to 30% from 0 to 9 min.
The method for [^11C]metoclopramide metabolism has been previously reported.

[8] = tested on: P-gp; assay: Brain PET imaging in rats at baseline and after P-gp inhibition with TQD; type: in vivo; conditions: brain/plasma, with tariquidar; rat; presence of P-gp inhibition (TQD); newly calculated from published PET data of ref 21, 24
Experimental: (§1) PET acquisitions were performed using an Inveon microPET scanner (Siemens, TN, USA). […] Radiotracers were diluted in saline to obtain at least <10% ethanol in the ready-to-inject preparation.
(§2) TQD was used to inhibit P-gp function in rats. TQD was injected in a volume of 200–300 µL into the caudal vein 15 min before radiotracer injection.
(§3) Images were reconstructed with the Fourier rebinning algorithm and the three-dimensional ordered-subset expectation-maximization algorithm, including normalization, attenuation, scatter, and random corrections. Image analysis and quantification of radioactivity uptake were performed using PMOD software (version 3.9; PMOD Technologies, Zurich, Switzerland). A region of interest was drawn over the whole brain to generate time-activity curves (TACs) with time frame durations of 0.25 min, 2 × 0.5 min, 0.75 min, 4 × 1 min, 1.5 min, 4 × 2 min, 3 × 2.5 min, 3 × 3 min, and 3.5 min. Brain radioactivity was corrected for ^11C decay and expressed as the standardized uptake value (SUV) after correction by injected dose and animal weight.
(§4) The mean AUCplasma 20–30 was obtained in each condition to estimate Kp,brain = AUCbrain 20–30/AUCplasma 20–30, considering the mean metabolite-corrected arterial input function. Kp,brain were compared with a two-way ANOVA and a Tukey’s post hoc test using Graphpad Prism software (V8.0, San Diego, CA, USA).

[9] = as above; type: in vivo; conditions: rat
Experimental: as §1, §2, §3, §4

[10] = design: method as in PMID 26585058, PMID 34496661; conditions: rat; 8 mg/kg tariquidar versus baseline; cited from earlier work
[11] = rat; 60 min post-injection; cited from earlier work
[12] = molecular target: T1, human P-gp; design: method as in PMID 34496661; conditions: cited from earlier work; for IC50: read-out: IC50 of TQD (P-gp inhibition)
[13] = molecular target: T1, human P-gp; assay: Uptake assay in P-gp overexpressing MDCKII-MDR1 cells with radiolabeled substrate and tariquidar; type: cell-based; conditions: [11C]domperidone as substrate, 30 min incubation, CI95% 198-248 nM, read-out: IC50 of TQD (P-gp inhibition)
Experimental: Culture media and buffers were obtained from Fischer Scientific, France. Stably transfected MDCKII-MDR1 cells were obtained from Dr. Alfred Schinkel (National Cancer Institute, Amsterdam, The Netherlands) and were grown under a controlled atmosphere at 37 °C, 5% CO2. The culture medium was composed of DMEM Glutamax (Dulbecco’s Modified Eagle Medium, 4.5 g/Ldextrose, 1 mM pyruvate) supplemented with 10% fetal bovine serum and 1% antibiotics (penicillin and streptomycin 5000 U/mL).
Cells were seeded in 24-well plates (30,000 cells per well) in a 500 μL culture medium. Cells were grown to confluence (~2 days). […] Then, 400 μL of cell lysate was collected from each well (n = 4 wells per condition) and gamma counted using a Cobra Quantum (Perkin-Elmer, Villebon-sur-Yvette, France).
Counting values obtained in each well were normalized using Equation (1):(1) I%=R−mRzero/mRmax×100 where I% is the extent of inhibition (I%) between 0 and 100%, R is the radioactivity in the 4 tested wells, mRzero is the mean of the 4 wells without TQD, and mRmax is the difference of means between the 4 wells containing the highest concentration of TQD (800 nM) and the 4 wells without TQD. […]

T1 sequence (P08183 whole entry): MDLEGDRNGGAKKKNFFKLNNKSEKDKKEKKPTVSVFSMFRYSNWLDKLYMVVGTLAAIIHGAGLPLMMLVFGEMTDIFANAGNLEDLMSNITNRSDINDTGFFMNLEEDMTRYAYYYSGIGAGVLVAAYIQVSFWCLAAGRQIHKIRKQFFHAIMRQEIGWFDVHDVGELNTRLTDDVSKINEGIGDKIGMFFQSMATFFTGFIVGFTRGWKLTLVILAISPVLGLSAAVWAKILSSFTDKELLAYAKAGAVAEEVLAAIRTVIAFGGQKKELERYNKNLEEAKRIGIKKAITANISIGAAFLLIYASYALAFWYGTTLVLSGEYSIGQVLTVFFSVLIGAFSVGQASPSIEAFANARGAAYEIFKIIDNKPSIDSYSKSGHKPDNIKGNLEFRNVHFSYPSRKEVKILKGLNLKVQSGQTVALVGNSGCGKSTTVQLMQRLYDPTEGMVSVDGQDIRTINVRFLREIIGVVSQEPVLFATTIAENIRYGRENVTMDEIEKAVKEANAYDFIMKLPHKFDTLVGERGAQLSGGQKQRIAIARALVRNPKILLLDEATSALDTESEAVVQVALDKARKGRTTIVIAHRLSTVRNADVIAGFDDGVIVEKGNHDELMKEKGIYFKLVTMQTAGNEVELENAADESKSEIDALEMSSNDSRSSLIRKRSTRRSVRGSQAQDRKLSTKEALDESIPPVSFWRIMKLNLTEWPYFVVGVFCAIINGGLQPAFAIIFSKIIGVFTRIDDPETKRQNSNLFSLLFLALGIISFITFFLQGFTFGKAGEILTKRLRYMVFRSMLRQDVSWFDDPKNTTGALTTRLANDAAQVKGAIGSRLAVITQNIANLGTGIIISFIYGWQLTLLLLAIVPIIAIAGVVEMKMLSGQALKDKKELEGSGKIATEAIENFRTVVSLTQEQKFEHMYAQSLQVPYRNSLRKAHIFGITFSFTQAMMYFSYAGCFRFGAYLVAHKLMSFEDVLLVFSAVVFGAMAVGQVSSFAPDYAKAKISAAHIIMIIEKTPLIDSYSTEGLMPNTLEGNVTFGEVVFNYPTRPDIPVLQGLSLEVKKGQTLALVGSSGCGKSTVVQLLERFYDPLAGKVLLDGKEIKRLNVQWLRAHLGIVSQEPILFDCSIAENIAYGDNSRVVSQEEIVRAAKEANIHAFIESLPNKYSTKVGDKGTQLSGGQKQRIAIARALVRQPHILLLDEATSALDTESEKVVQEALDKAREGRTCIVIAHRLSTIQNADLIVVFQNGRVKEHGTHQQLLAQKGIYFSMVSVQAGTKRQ

CCN(CC)CCNC(=O)c1cc(Cl)c(N)cc1OC [Metoclopramide]
Kp,uu,brain ([1]; another study): 0.235 | Tissue/plasma ratio (Kp,brain) ([1]; ex vivo): 1.72 | Kp,uu,brain [1]: 2.4 | Neurological side effects: Frequent [2]: extrapyramidal signs, parkinsonian syndrome, akathisia | Neurological side effects: Not Frequent [2]: dystonia, dyskinesia, altered consciousness | Neurological side effects: Rare [2]: convulsions | Neurological side effects: Unspecified frequency [2]: late dyskinesia, neuroleptic malignant syndrome | Neurological side effects: Very Frequent [2]: sleepiness | Passage across in vitro BBB model compared with passage across the filter (no BBB) [3]: 100% | Fold increase in Kp,brain in P-gp deficient mice compared with wild-type mice [4]: 6.6 fold | Efflux ratio [5]: 1.6 | Efflux ratio [6]: 1.4

O=c1[nH]c2cc(Cl)ccc2n1C1CCN(CCCn2c3ccccc3[nH][11c]2=O)CC1 [[^11C]domperidone]
Parent (unmetabolized) fraction in plasma ([7]; 60 min post-injection): > 30% | Effect of TQD on the fraction of parent (unmetabolized) radiotracer in plasma ([7]; with versus without TQD): did not impact

CCN(CC)CCNC(=O)c1cc(Cl)c(N)cc1O[11CH3] [[^11C]metoclopramide]
Kp [8]: 47 ± 5.52 | Kp ([9]; brain/plasma, absence of P-gp inhibition, newly calculated from published PET data of ref 21, 24): 10.1 ± 2.01 | Baseline brain exposure (AUCbrain), fold higher compared with [11C]domperidone ([9]; baseline): 2.4 fold | Maximal increase in brain exposure [10]: 2.9 fold | Parent (unmetabolized) fraction in plasma [11]: could hardly be detected | Uptake ratio (intracellular radioactivity after complete P-gp inhibition / without inhibition) ([12]; MDCKII-MDR1 cells, 200 nM TQD): 1.4 ± 0.07

COc1cc2c(cc1OC)CN(CCc1ccc(NC(=O)c3cc(OC)c(OC)cc3NC(=O)c3cnc4ccccc4c3)cc1)CC2 [tariquidar, Tariquidar]
IC50 [13]: 0.221 µM | IC50 ([12]; [11C]N-desmethyl-loperramide as substrate probe, same experimental conditions): 0.019 µM | IC50 ([12]; [11C]metoclopramide as substrate, MDCKII-MDR1 cells, CI95% 2-8 nM): 0.004 µM | IC50 ([12]; [11C]verapamil as substrate probe, same experimental conditions): 0.045 µM

Source: PMC9412994 (Pharmaceutics, 2022)
